Experimental data published in ChEMBL document CHEMBL5625268, “Identification of novel benzothiazole derivatives as inhibitors of NEDDylation pathway to inhibit the progression of gastric cancer” (Bioorg Med Chem Lett, 2024).

Legend:
KYSE-30 = assay: Antiproliferative activity against human KYSE-30 cells by CCK8 assay; assay type: functional, cell-based
MCF7 = assay: Antiproliferative activity against human MCF7 cells by CCK8 assay; assay type: functional, cell-based
A549 = assay: Antiproliferative activity against human A549 cells by CCK8 assay; assay type: functional, cell-based
MGC-803 = assay: Antiproliferative activity against human MGC-803 cells by CCK8 assay; assay type: functional, cell-based
[1] = biological target: T1, NEDD8-activating enzyme E1 regulatory subunit (Homo sapiens, UniProt Q13564); assay: Inhibition of NAE (unknown origin)
T1 sequence (Q13564 whole entry): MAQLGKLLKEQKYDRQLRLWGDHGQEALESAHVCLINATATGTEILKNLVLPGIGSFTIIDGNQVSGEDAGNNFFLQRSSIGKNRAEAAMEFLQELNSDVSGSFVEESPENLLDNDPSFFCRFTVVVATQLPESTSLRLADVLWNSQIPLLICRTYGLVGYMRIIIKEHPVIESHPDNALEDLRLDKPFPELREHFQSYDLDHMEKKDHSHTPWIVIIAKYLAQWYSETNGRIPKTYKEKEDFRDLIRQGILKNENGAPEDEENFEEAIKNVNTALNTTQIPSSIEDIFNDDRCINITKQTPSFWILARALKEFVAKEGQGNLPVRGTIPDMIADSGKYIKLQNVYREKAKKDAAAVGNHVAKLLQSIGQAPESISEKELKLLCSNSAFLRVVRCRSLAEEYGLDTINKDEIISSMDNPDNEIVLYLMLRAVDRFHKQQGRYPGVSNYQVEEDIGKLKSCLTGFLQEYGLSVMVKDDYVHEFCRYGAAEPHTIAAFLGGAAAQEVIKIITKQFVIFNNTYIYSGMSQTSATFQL

Row | IC50 (MCF7) [µM] | IC50 (A549) [µM] | IC50 (MGC-803) [µM] | IC50 [1] [µM] | Compound | IC50 (KYSE-30) [µM]
1 | 2.35 | 1.99 | 2.8 |  | O=C(Nc1nc2ccc(NC(=O)C3CCN(Cc4ccccc4)CC3)cc2s1)c1sccc1F | 2.03
2 |  | 1.64 | 1.84 |  | NS(=O)(=O)OC[C@@H]1C[C@@H](n2ccc3c(N[C@H]4CCc5ccccc54)ncnc32)C[C@@H]1O [PEVONEDISTAT] | 3.75
3 | 10.7 | 8.13 | 7.84 |  | O=C(Nc1nc2ccc(NC(=O)C3CCN(Cc4ccccc4)CC3)cc2s1)c1ccc(-c2ccccc2)cc1 | 2.88
4 | 2.89 | 2.47 | 3.31 |  | O=C(Nc1nc2ccc(NC(=O)C3CCN(Cc4ccccc4)CC3)cc2s1)c1sccc1Br | 2.63
5 | 1.55 | 1.28 | 1.87 |  | CCCc1ccc(C(=O)Nc2nc3ccc(NC(=O)C4CCN(Cc5ccccc5)CC4)cc3s2)cc1 | 0.91
6 |  |  |  | 0.004 | CCOc1cccc(F)c1C#Cc1cn([C@H]2O[C@@H](CNS(N)(=O)=O)[C@H](O)[C@@H]2O)c2ncnc(N)c12 | 
7 | 13.1 | 3.31 | 4.74 |  | N#Cc1ccc(C(=O)Nc2nc3ccc(NC(=O)C4CCN(Cc5ccccc5)CC4)cc3s2)cc1 | 1.41
8 | 2.78 | 2.18 | 3.82 |  | Cc1ccc(C(=O)Nc2nc3ccc(NC(=O)C4CCN(Cc5ccccc5)CC4)cc3s2)cc1 | 1.19
9 | 11.9 | 12.8 | 15.7 |  | C/C=C/C(=O)Nc1nc2ccc(NC(=O)C3CCN(Cc4ccccc4)CC3)cc2s1 | 17.7
10 | 1.63 | 1.35 | 1.85 |  | O=C(Nc1nc2ccc(NC(=O)C3CCN(Cc4ccccc4)CC3)cc2s1)c1ccc2c(c1)OCO2 | 1.33
11 | 4.17 | 4.33 | 10.9 |  | O=C(Nc1nc2ccc(NC(=O)C3CCN(Cc4ccccc4)CC3)cc2s1)c1ccccc1 | 3.22
12 | 11.4 | 5.26 | 12.9 |  | O=C(Nc1nc2ccc(NC(=O)C3CCN(Cc4ccccc4)CC3)cc2s1)c1ccccc1F | 2.29
13 | 15.9 | 3.77 | 10.7 |  | O=C(Nc1nc2ccc(NC(=O)C3CCN(Cc4ccccc4)CC3)cc2s1)c1ccc(F)cc1Cl | 2.08
14 | 37.5 | 29.1 | 30.1 |  | CCCC(=O)Nc1nc2ccc(NC(=O)C3CCN(Cc4ccccc4)CC3)cc2s1 | 22.7
15 | 1.88 | 2.82 | 1.75 |  | O=C(Nc1nc2ccc(NC(=O)C3CCN(Cc4ccccc4)CC3)cc2s1)c1ccc(Cl)o1 | 1.9
16 | 0.98 | 1.19 | 1.69 |  | O=C(Nc1nc2ccc(NC(=O)C3CCN(Cc4ccccc4)CC3)cc2s1)c1cscn1 | 0.73
17 | 7.46 | 4.25 | 5.09 |  | O=C(Nc1nc2ccc(NC(=O)C3CCN(Cc4ccccc4)CC3)cc2s1)c1ccco1 | 7.41
18 | 5.74 | 4.51 | 12.7 |  | O=C(Nc1nc2ccc(NC(=O)C3CCN(Cc4ccccc4)CC3)cc2s1)c1ccc(F)cc1 | 1.08
19 | 23.9 | 20.4 | 25.6 |  | O=C(Nc1nc2ccc(NC(=O)C3CCN(Cc4ccccc4)CC3)cc2s1)c1cccnc1 | 19.6
20 |  |  |  | 12 | COc1ccccc1/C=C1\SC(=O)N(CCC(=O)Nc2ccc(S(N)(=O)=O)cc2)C1=O | 
21 | 8.54 | 5.58 | 6.85 |  | O=C(Nc1nc2ccc(NC(=O)C3CCN(Cc4ccccc4)CC3)cc2s1)c1ccc(F)c(F)c1 | 1.82
22 | 3.24 | 1.7 | 2.77 |  | O=C(Nc1nc2ccc(NC(=O)C3CCN(Cc4ccccc4)CC3)cc2s1)c1cccs1 | 1.64
23 | 11.9 | 7.25 | 8.76 |  | O=C(Nc1nc2ccc(NC(=O)C3CCN(Cc4ccccc4)CC3)cc2s1)c1ccc2ccccc2c1 | 3
24 | 11.7 | 11.4 | 11 |  | O=C(Nc1ccc2nc(NC(=O)C3COc4ccccc4O3)sc2c1)C1CCN(Cc2ccccc2)CC1 (stereo not given) | 13.8
25 | 4.15 | 5.6 | 4.96 |  | COc1cc(C(=O)Nc2nc3ccc(NC(=O)C4CCN(Cc5ccccc5)CC4)cc3s2)cc(OC)c1OC | 1.08
26 | 4.58 | 6.29 | 8.53 |  | O=C(Nc1nc2ccc(NC(=O)C3CCN(Cc4ccccc4)CC3)cc2s1)c1ccc(C(F)(F)F)cc1 | 1.25
27 | 7.32 | 4.94 | 13 |  | O=C(Nc1nc2ccc(NC(=O)C3CCN(Cc4ccccc4)CC3)cc2s1)c1cccc(F)c1 | 1.71
28 | > 100 | 41.2 | 4.91 |  | Nc1ccc(SCC(=O)Nc2ccc3nc(NC(=O)c4ccc(C(F)(F)F)cc4)sc3c2)cc1 | 17.4
